{
  "source": "paper PMC7914304",
  "about": "(Bioorganic & medicinal chemistry, 2020)",
  "key": {"[1]": {"details": "mice, oral, cited from earlier work"}, "logP by HPLC method": {"assay": "logP by HPLC method", "format": "physicochemical"}},
  "note": "Like-named read-outs stand apart in the source and are kept apart here.",
  "data": [
    {"smiles": "CC[C@H](C)C(=O)N1CCC(NC(=O)Nc2ccc(OC(F)(F)F)cc2)CC1", "note": "[compound 3]", "values": [
      {"measurement": "AUC", "setting": "[1]; 0.3 mg/kg", "result": 2.53, "unit": "µM·h"},
      {"measurement": "Cmax", "setting": "[1]; 0.3 mg/kg", "result": 195, "unit": "nM"},
      {"measurement": "T1/2", "setting": "[1]; 0.3 mg/kg", "result": 7.7, "unit": "h"},
      {"measurement": "Tmax", "setting": "[1]; 0.3 mg/kg", "result": 4, "unit": "h"},
      {"measurement": "logP", "setting": "logP by HPLC method", "result": 3.97}
    ]},
    {"smiles": "CC(=O)N1CCC(NC(=O)NC23CC4CC(CC(C4)C2)C3)CC1", "note": "[inhibitor 1]", "values": [
      {"measurement": "AUC", "setting": "[1]; 0.5 mg/kg", "result": 0.183, "unit": "µM·h"},
      {"measurement": "Cmax", "setting": "[1]; 0.5 mg/kg", "result": 30, "unit": "nM"},
      {"measurement": "T1/2", "setting": "[1]; 0.5 mg/kg", "result": 3, "unit": "h"},
      {"measurement": "Tmax", "setting": "[1]; 0.5 mg/kg", "result": 1, "unit": "h"}
    ]}
  ]
}
